In PubChem BioAssay AID743464 (Broad Institute, 2014):
The source made the active and inactive calls.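 Rule for the calls: active = fitted curve of COX8b expression increase reaching level 40 at or below the top valid tested dose; inconclusive = flat fit between 30 and 70, or poor fit; inactive = the rest.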

System: not listed separately
Assay: change in PGC-1a target gene COX8b expression, dose response, C2C12 myotubes, RT-qPCR, cherry-pick (AID 743464)
Details: C2C12 myotubes, COX8b mRNA qPCR (delta-delta-Ct); at 6.8 µM (top of the series)

SMILES	COX8b expression increase
N#Cc1cc(Oc2cccc3cccnc23)c(-n2nnc3ccccc32)cc1C#N	-21.9 unspecified (inactive)

Same assay, conditions: C2C12 myotubes, COX8b mRNA qPCR (delta-delta-Ct); at 19.5 µM (top of the series)

SMILES	COX8b expression increase
Cn1nnnc1SCC(=O)NCc1cccc(C(=O)O)c1	-7.14 unspecified (inactive)
CC[C@H](C)[C@H](NC(=O)c1ccc(Cl)cc1)C(=O)OCC(=O)c1ccc2c(c1)NC(=O)CO2	-1.89 unspecified (inactive)
Cc1nc2ccccn2c1C(=O)/C=C/c1ccc(F)cc1	-3.59 unspecified (inactive)
CC1=C(Cl)C2=NS(=O)(=O)CCN2C=C1Cl	6.22 unspecified (inactive)
CCOc1cc(CNC2CCCC2)cc(Cl)c1OCc1ccc(F)cc1	0.737 unspecified (inactive)
COCCSc1ccccc1C(=O)Nc1cc(C)on1	3.36 unspecified (inactive)
C[C@H](CO)N1C[C@H](C)[C@@H](CN(C)Cc2cccnc2)Oc2cc(C#CC3CCCCC3)ccc2S1(=O)=O	0.89 unspecified (inactive)
Cc1ccccc1-n1nnnc1Sc1nnnn1-c1ccccc1	9.68 unspecified (inactive)
Cc1cc(C)cc(OC(=O)CS(=O)c2ccc(C(F)(F)F)cc2[N+](=O)[O-])c1 (centres undefined)	-6.23 unspecified (inactive)
Cc1ccc(-c2nc(NC(=O)c3nn(C)cc3[N+](=O)[O-])sc2C)cc1	8.83 unspecified (inactive)
COc1ccccc1C#Cc1ccc([C@H]2[C@H](C#N)N(C(=O)C3CCCC3)[C@H]2CO)cc1	21.2 unspecified (inactive)
C#CCN(C[C@@H]1[C@@H](OC(=O)NCCCCCC)[C@@H](OC(=O)NCCCCCC)Cn2c(=O)ccc(=O)n21)S(=O)(=O)c1ccc(C)cc1	4.23 unspecified (inactive)
CCN1CCN(Cc2ccc(NC(=O)c3ccc(C)c(NC(=O)c4c[nH]c5cc(C(F)(F)F)ccc5c4=O)c3)cc2C(F)(F)F)CC1	15.7 unspecified (inactive)
C[C@H](CO)N1C[C@H](C)[C@@H](CN(C)C(=O)C2CCCCC2)Oc2cc(C#Cc3ccncc3)ccc2S1(=O)=O	9.62 unspecified (inactive)
Nc1ncnc(NCc2ccc(F)cc2)c1[N+](=O)[O-]	1.72 unspecified (inactive)
OC(c1cc(C(F)(F)F)nc2c(C(F)(F)F)cccc12)C1CCCCN1 (centres undefined)	1.68 unspecified (inactive)
O=c1cc(CSc2ccccn2)[nH]c(=O)[nH]1	-6.81 unspecified (inactive)
C[C@H]1CN([C@@H](C)CO)S(=O)(=O)c2ccc(-c3ccccc3)cc2O[C@@H]1CN(C)Cc1cccc(F)c1	-3.3 unspecified (inactive)
CS(=O)c1nc(-c2ccc(Br)cc2)cc(-c2ccccc2)c1C#N (centres undefined)	6.29 unspecified (inactive)
O=C(C[C@H]1CC[C@@H](NC(=O)c2ccccc2)[C@H](CO)O1)Nc1ccc(-c2ccccc2)cc1	-12.4 unspecified (inactive)
COC(=O)c1nn(-c2ccccc2)ccc1=O	3.82 unspecified (inactive)
O=c1[nH]c2ccccc2n1C1CCN(C(c2cc3ccccc3o2)c2nnnn2Cc2ccccc2)CC1 (centres undefined)	12.6 unspecified (inactive)
COc1ccc(C(=O)Nc2cccc(NC(=O)c3ccc(OC)c(OC)c3)n2)cc1OC	7.85 unspecified (inactive)
CCN1CCN(Cc2ccc(NC(=O)c3cc(NC(=O)c4cncc(-c5ccc(C#N)cc5)c4)cc(OC)c3)cc2C(F)(F)F)CC1	-3 unspecified (inactive)
CCN(CC(=O)NCc1ccc(Cl)cc1)C(=O)CSCC(=O)Nc1ccc(C)cc1	0.86 unspecified (inactive)
Cc1nc(Nc2ccc(S(N)(=O)=O)cc2)sc1C(=O)Nc1ccccc1	-1.19 unspecified (inactive)
Cc1cc2c(c(/C=C/C(=O)c3ccccc3)c1)OC1(C=C2)Oc2ccccc2C(=O)N1C (centres undefined)	21.7 unspecified (inactive)

System: C2C12 myotubes, COX8b mRNA qPCR (delta-delta-Ct)
Assay: as above
Details: not given

SMILES	AC40
Cc1ccc(Cn2ncc(Cl)c(Cl)c2=O)cc1	> 19.5 µM (inactive)
N#Cc1ccc(-c2ccc(C3[C@@H]4CN(S(=O)(=O)c5ccc(F)cc5)C[C@H]3N4)cc2)cc1 (some centres undefined)	> 19.5 µM (inactive)
C=CS(=O)(=O)N(Cc1ccccc1Br)[C@H](CO)Cc1ccccc1	> 19.5 µM (inactive)
Cc1ccc(S(=O)(=O)N(C)C[C@@H]2Oc3cc(C#Cc4ccncc4)ccc3S(=O)(=O)N([C@H](C)CO)C[C@H]2C)cc1	> 19.5 µM (inactive)
O=C(Nc1ccc(C(F)(F)F)cc1)N1C[C@@H]2N[C@H](C1)C2c1ccc(-c2ccccc2)cc1 (some centres undefined)	> 19.5 µM (inactive)
O=C(Nc1cccc(F)c1)N1CC(=O)N2[C@@H](CO)[C@@H](c3ccc(C#Cc4cccnc4)cc3)[C@@H]2C1	> 19.5 µM (inactive)
COc1ccccc1-c1ccc([C@@H]2[C@@H]3CN(S(=O)(=O)c4ccc(-c5ccccc5)cc4)C[C@H]2N3)cc1	> 19.5 µM (inactive)
Cc1cccc(NC(=O)CNC(=O)Cn2ncc(Cl)c(Cl)c2=O)c1C	> 19.5 µM (inactive)
Cc1ccc(-c2ccc(C3[C@@H]4CN(C(=O)Nc5ccc(C(F)(F)F)cc5)C[C@H]3N4)cc2)cc1 (some centres undefined)	> 19.5 µM (inactive)
O=C(Nc1ccc(N2CCN(Cc3ccccc3F)CC2)cc1)c1ccc([N+](=O)[O-])o1	10.4 µM
CCCN(CC)c1ncnc2[nH]ncc12	17.5 µM
COc1ccccc1C#Cc1ccc2c(c1)O[C@@H](CN(C)Cc1cccnc1)[C@H](C)CN([C@H](C)CO)S2(=O)=O	> 19.5 µM (inactive)
Cc1ccc(S(=O)(=O)N(C)C[C@H]2Oc3cc(C#Cc4ccncc4)ccc3S(=O)(=O)N([C@H](C)CO)C[C@H]2C)cc1	19.3 µM
CCn1nc(/C=C/c2ccccc2)nc2c(=O)n(C)c(=O)nc1-2	0.78 µM
CCOC(=O)c1c2c(n(C)c1C)C(=O)C(=O)c1ccc(Br)cc1-2	16.8 µM
Cc1ccc(S(=O)(=O)N(C)C[C@@H]2Oc3cc(C#Cc4ccncc4)ccc3S(=O)(=O)N([C@@H](C)CO)C[C@H]2C)cc1	> 19.5 µM (inactive)
